How the values were obtained:
HCT-15 = assay: Antiproliferative activity against human HCT-15 cells assessed as cell growth inhibition at 10 uM incubated for 24 hrs by sulforhodamine B assay; assay type: functional; settings: read-out: GI
NCI-H522 = assay: Antiproliferative activity against human NCI-H522 cells assessed as cell growth inhibition at 10 uM incubated for 24 hrs by sulforhodamine B assay; assay type: functional; settings: read-out: GI
ACHN = assay: Antiproliferative activity against human ACHN cells assessed as cell growth inhibition at 10 uM incubated for 24 hrs by sulforhodamine B assay; assay type: functional; settings: read-out: GI
NCI-H226 = assay: Antiproliferative activity against human NCI-H226 cells assessed as cell growth inhibition at 10 uM incubated for 24 hrs by sulforhodamine B assay; assay type: functional; settings: read-out: GI
SK-MEL-5 = assay: Antiproliferative activity against human SK-MEL-5 cells assessed as cell growth inhibition at 10 uM incubated for 24 hrs by sulforhodamine B assay; assay type: functional; settings: read-out: GI
EKVX = assay: Antiproliferative activity against human EKVX cells assessed as cell growth inhibition at 10 uM incubated for 24 hrs by sulforhodamine B assay; assay type: functional; settings: read-out: GI
Carbonic anhydrase 9 = Carbonic anhydrase 9 (Homo sapiens, UniProt Q16790); assay: Inhibition of human CA9 preincubated for 15 mins by phenol red dye based stopped flow CO2 hydration assay
K562 = assay: Antiproliferative activity against human K562 cells assessed as cell growth inhibition at 10 uM incubated for 24 hrs by sulforhodamine B assay; assay type: functional; settings: read-out: GI
U-251 = assay: Antiproliferative activity against human U-251 cells assessed as cell growth inhibition at 10 uM incubated for 24 hrs by sulforhodamine B assay; assay type: functional; settings: read-out: GI
OVCAR-4 = assay: Antiproliferative activity against human OVCAR-4 cells assessed as cell growth inhibition at 10 uM incubated for 24 hrs by sulforhodamine B assay; assay type: functional; settings: read-out: GI
MDA-MB-231 [1] = assay: Antiproliferative activity against human MDA-MB-231 cells assessed as cell growth inhibition at 10 uM incubated for 24 hrs by sulforhodamine B assay; assay type: functional; settings: read-out: GI
MCF7 [2] = assay: Antiproliferative activity against human MCF7 cells assessed as cell growth inhibition at 10 uM incubated for 24 hrs by sulforhodamine B assay; assay type: functional; settings: read-out: GI
T47D [3] = assay: Antiproliferative activity against human T47D cells assessed as cell growth inhibition at 10 uM incubated for 24 hrs by sulforhodamine B assay; assay type: functional; settings: read-out: GI
NCI-H460 = assay: Antiproliferative activity against human NCI-H460 cells assessed as cell growth inhibition at 10 uM incubated for 24 hrs by sulforhodamine B assay; assay type: functional; settings: read-out: GI
T47D [4] = assay: Antiproliferative activity against human T47D cells assessed as reduction in cell viability incubated for 24 hrs by sulforhodamine B assay; assay type: functional, cell-based
MOLT-4 = assay: Antiproliferative activity against human MOLT-4 cells assessed as cell growth inhibition at 10 uM incubated for 24 hrs by sulforhodamine B assay; assay type: functional; settings: read-out: GI
SN12C = assay: Antiproliferative activity against human SN12C cells assessed as cell growth inhibition at 10 uM incubated for 24 hrs by sulforhodamine B assay; assay type: functional; settings: read-out: GI
Malme-3M = assay: Antiproliferative activity against human Malme-3M cells assessed as cell growth inhibition at 10 uM incubated for 24 hrs by sulforhodamine B assay; assay type: functional; settings: read-out: GI
MDA-MB-435 = assay: Antiproliferative activity against human MDA-MB-435 cells assessed as cell growth inhibition at 10 uM incubated for 24 hrs by sulforhodamine B assay; assay type: functional; settings: read-out: GI
OVCAR-8 = assay: Antiproliferative activity against human OVCAR-8 cells assessed as cell growth inhibition at 10 uM incubated for 24 hrs by sulforhodamine B assay; assay type: functional; settings: read-out: GI
SNB-75 = assay: Antiproliferative activity against human SNB-75 cells assessed as cell growth inhibition at 10 uM incubated for 24 hrs by sulforhodamine B assay; assay type: functional; settings: read-out: GI
PC-3 = assay: Antiproliferative activity against human PC-3 cells assessed as cell growth inhibition at 10 uM incubated for 24 hrs by sulforhodamine B assay; assay type: functional; settings: read-out: GI
DU-145 = assay: Antiproliferative activity against human DU-145 cells assessed as cell growth inhibition at 10 uM incubated for 24 hrs by sulforhodamine B assay; assay type: functional; settings: read-out: GI
A549 = assay: Antiproliferative activity against human A549 cells assessed as cell growth inhibition at 10 uM incubated for 24 hrs by sulforhodamine B assay; assay type: functional; settings: read-out: GI
UACC-62 = assay: Antiproliferative activity against human UACC-62 cells assessed as cell growth inhibition at 10 uM incubated for 24 hrs by sulforhodamine B assay; assay type: functional; settings: read-out: GI
MDA-MB-468 = assay: Antiproliferative activity against human MDA-MB-468 cells assessed as cell growth inhibition at 10 uM incubated for 24 hrs by sulforhodamine B assay; assay type: functional; settings: read-out: GI
[5] = Antiproliferative activity against human […] cells assessed as cell growth inhibition at 10 uM incubated for 24 hrs by sulforhodamine B assay; assay type: functional; settings: read-out: GI
SNB-19 = assay: Antiproliferative activity against human SNB-19 cells assessed as cell growth inhibition at 10 uM incubated for 24 hrs by sulforhodamine B assay; assay type: functional; settings: read-out: GI
SF-539 = assay: Antiproliferative activity against human SF-539 cells assessed as cell growth inhibition at 10 uM incubated for 24 hrs by sulforhodamine B assay; assay type: functional; settings: read-out: GI
LOX IMVI = assay: Antiproliferative activity against human LOX IMVI cells assessed as cell growth inhibition at 10 uM incubated for 24 hrs by sulforhodamine B assay; assay type: functional; settings: read-out: GI
KM12 = assay: Antiproliferative activity against human KM12 cells assessed as cell growth inhibition at 10 uM incubated for 24 hrs by sulforhodamine B assay; assay type: functional; settings: read-out: GI
HOP-92 = assay: Antiproliferative activity against human HOP-92 cells assessed as cell growth inhibition at 10 uM incubated for 24 hrs by sulforhodamine B assay; assay type: functional; settings: read-out: GI
A498 = assay: Antiproliferative activity against human A498 cells assessed as cell growth inhibition at 10 uM incubated for 24 hrs by sulforhodamine B assay; assay type: functional; settings: read-out: GI
MDA-MB-231 [6] = assay: Antiproliferative activity against human MDA-MB-231 cells assessed as reduction in cell viability incubated for 24 hrs by sulforhodamine B assay; assay type: functional, cell-based; settings: MDA-MB-231, 24 h
BT-549 = assay: Antiproliferative activity against human BT-549 cells assessed as cell growth inhibition at 10 uM incubated for 24 hrs by sulforhodamine B assay; assay type: functional; settings: read-out: GI
MCF7 [7] = assay: Antiproliferative activity against human MCF7 cells assessed as reduction in cell viability incubated for 24 hrs by sulforhodamine B assay; assay type: functional, cell-based; settings: MCF7, 24 h
SR = assay: Antiproliferative activity against human SR cells assessed as cell growth inhibition at 10 uM incubated for 24 hrs by sulforhodamine B assay; assay type: functional; settings: read-out: GI
CAKI-1 = assay: Antiproliferative activity against human CAKI-1 cells assessed as cell growth inhibition at 10 uM incubated for 24 hrs by sulforhodamine B assay; assay type: functional; settings: read-out: GI
HL-60 = assay: Antiproliferative activity against human HL-60 cells assessed as cell growth inhibition at 10 uM incubated for 24 hrs by sulforhodamine B assay; assay type: functional; settings: read-out: GI
Hs-578T = assay: Antiproliferative activity against human HS-578T cells assessed as cell growth inhibition at 10 uM incubated for 24 hrs by sulforhodamine B assay; assay type: functional; settings: read-out: GI
RPMI-8226 = assay: Antiproliferative activity against human RPMI-8226 cells assessed as cell growth inhibition at 10 uM incubated for 24 hrs by sulforhodamine B assay; assay type: functional; settings: read-out: GI
CCRF-CEM = assay: Antiproliferative activity against human CCRF-CEM cells assessed as cell growth inhibition at 10 uM incubated for 24 hrs by sulforhodamine B assay; assay type: functional; settings: read-out: GI
SF-295 = assay: Antiproliferative activity against human SF-295 cells assessed as cell growth inhibition at 10 uM incubated for 24 hrs by sulforhodamine B assay; assay type: functional; settings: read-out: GI
HCT-116 = assay: Antiproliferative activity against human HCT-116 cells assessed as cell growth inhibition at 10 uM incubated for 24 hrs by sulforhodamine B assay; assay type: functional; settings: read-out: GI
786-0 = assay: Antiproliferative activity against human 786-0 cells assessed as cell growth inhibition at 10 uM incubated for 24 hrs by sulforhodamine B assay; assay type: functional; settings: read-out: GI
RXF 393 = assay: Antiproliferative activity against human RXF 393 cells assessed as cell growth inhibition at 10 uM incubated for 24 hrs by sulforhodamine B assay; assay type: functional; settings: read-out: GI
UO-31 = assay: Antiproliferative activity against human UO-31 cells assessed as cell growth inhibition at 10 uM incubated for 24 hrs by sulforhodamine B assay; assay type: functional; settings: read-out: GI

Structure (SMILES): COc1ccc(OC)c(-c2nc(SCC(=O)c3ccccc3)nc(Nc3ccc(S(N)(=O)=O)cc3)c2C#N)c1
- inhibition of growth at 10 µM (HCT-15): 26.3%
- inhibition of growth at 10 µM (NCI-H522): 6.74%
- inhibition of growth at 10 µM (ACHN): 6.95%
- inhibition of growth at 10 µM (NCI-H226): 7.28%
- inhibition of growth at 10 µM (SK-MEL-5): 5.91%
- inhibition of growth at 10 µM (EKVX): 11.3%
- Ki (Carbonic anhydrase 9): 0.0877 µM
- inhibition of growth at 10 µM (K562): 14.6%
- inhibition of growth at 10 µM (U-251): 9.25%
- inhibition of growth at 10 µM (OVCAR-4): 14.9%
- inhibition of growth at 10 µM (MDA-MB-231 [1]): 23.6%
- inhibition of growth at 10 µM (MCF7 [2]): 14.7%
- inhibition of growth at 10 µM (T47D [3]): 20.4%
- inhibition of growth at 10 µM (NCI-H460): 10.9%
- IC50 (T47D [4]): > 100 µM
- inhibition of growth at 10 µM (MOLT-4): 30.1%
- inhibition of growth at 10 µM (SN12C): 14.1%
- inhibition of growth at 10 µM (Malme-3M): 6.7%
- inhibition of growth at 10 µM (MDA-MB-435): 7.57%
- inhibition of growth at 10 µM (OVCAR-8): 7.32%
- inhibition of growth at 10 µM (SNB-75): 18.4%
- inhibition of growth at 10 µM (PC-3): 20.6%
- inhibition of growth at 10 µM (DU-145): 8.97%
- inhibition of growth at 10 µM (A549): 10.8%
- inhibition of growth at 10 µM (UACC-62): 5.35%
- inhibition of growth at 10 µM (MDA-MB-468): 18.3%
- inhibition of growth at 10 µM [5]: 10.1%
- inhibition of growth at 10 µM (SNB-19): 9.28%
- inhibition of growth at 10 µM (SF-539): 27.1%
- inhibition of growth at 10 µM (LOX IMVI): 17.7%
- inhibition of growth at 10 µM (KM12): 8.89%
- inhibition of growth at 10 µM (HOP-92): 52%
- inhibition of growth at 10 µM (A498): 30.7%
- IC50 (MDA-MB-231 [6]): > 100 µM
- inhibition of growth at 10 µM (BT-549): 8.03%
- IC50 (MCF7 [7]): > 100 µM
- inhibition of growth at 10 µM (SR): 22.7%
- inhibition of growth at 10 µM (CAKI-1): 23.3%
- inhibition of growth at 10 µM (HL-60): 8.52%
- inhibition of growth at 10 µM (Hs-578T): 6.75%
- inhibition of growth at 10 µM (RPMI-8226): 18.1%
- inhibition of growth at 10 µM (CCRF-CEM): 10.7%
- inhibition of growth at 10 µM (SF-295): 10.3%
- inhibition of growth at 10 µM (HCT-116): 7.67%
- inhibition of growth at 10 µM (786-0): 12.6%
- inhibition of growth at 10 µM (RXF 393): 25.6%
- inhibition of growth at 10 µM (UO-31): 29.1%

Source: ChEMBL document CHEMBL5038625, “Application of the dual-tail approach for the design and synthesis of novel Thiopyrimidine-Benzenesulfonamide hybrids as selective carbonic anhydrase inhibitors” (Eur J Med Chem, 2022)
